In patent US6271233A, “Method for treating ocular neovascular diseases” (priority 1999, dated 2001):

How the values were obtained:
[1] = tested on: retinal vascular development; assay: Retinal vascular development in neonatal mice; format: in vivo, mouse (C57/BL6J)
Procedure: Litters of newborn C57/BL6J mice are divided into treatment and control groups which received daily subcutaneous injections of 10 mg/kg of drug or vehicle, respectively. […] The eyes are removed and fixed for 1 hour in 10% phosphate-buffered formalin. The cornea and lens are removed and the entire retina is carefully dissected from the eyecup, radially cut from the edge of the retina to the equator in all 4 quadrants, and flat-mounted in Aquamount with photoreceptors facing upward.

Flt-1 = molecular target: T1, Flt-1 (Homo sapiens, UniProt P17948); assay: Tyrosine kinase assay, phosphorylation of poly(GluTyr) by GST-fusion kinase domain: Flt-1; format: biochemical; conditions: in words
T1 construct: kinase domains of human VEGF receptors 1 and 2
T1 sequence (P17948 827-1158 limits assumed): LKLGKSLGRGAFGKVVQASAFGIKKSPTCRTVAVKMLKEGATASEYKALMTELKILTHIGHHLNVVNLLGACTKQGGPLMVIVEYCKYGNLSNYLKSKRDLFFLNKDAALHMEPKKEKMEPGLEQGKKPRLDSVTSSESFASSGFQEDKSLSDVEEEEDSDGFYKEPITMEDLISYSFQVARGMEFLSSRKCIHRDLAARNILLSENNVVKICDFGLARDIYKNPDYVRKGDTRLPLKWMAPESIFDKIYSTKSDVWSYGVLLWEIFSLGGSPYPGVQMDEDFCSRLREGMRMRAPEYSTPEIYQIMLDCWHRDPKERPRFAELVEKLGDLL

[2] = tested on: all other tyrosine kinase and serine/threonine kinases tested; assay: Kinase assay, all other tyrosine kinase and serine/threonine kinases tested; format: biochemical; conditions: in words
[3] = tested on: choroidal neovascularization; assay: Laser-induced choroidal neovascularization in mice; conditions: 50 mg/kg/day by gavage
Procedure: Choroidal neovascularization is generated by modification of a previously described technique. […] Three burns of krypton laser photocoagulation (100pm spot size, 0.1 seconds duration, 150 mW) are delivered to each retina using the slit lamp delivery system of a Coherent Model 920 Photocoagulator and a hand held cover slide as a contact lens. Burns are performed in the 9, 12, and 3 o'clock positions of the posterior pole of the retina. Production of a bubble at the time of laser, which indicates rupture of Bruch's membrane, is an important factor in obtaining CNV ^16, so only mice in which a bubble is produced for all three burns are included in the study. Ten mice are randomly assigned to treatment with vehicle alone and 10 mice received vehicle containing 120 μmoles/kg/day of one of the test drugs given orally by gavage. After 14 days, the mice are killed with an overdose of pentobarbital sodium, and their eyes are rapidly removed and frozen in optimal cutting temperature embedding compound (OCT).
After a 10 minute wash in 0.05 M Tris buffer, pH 7.6, slides are developed in Histomark Red (Kirkegaard and Perry) to give a red reaction product, and mounted with Cytoseal (Stephens Scientific, Riverdale, N.J.). Some slides are counterstained with Contrast Blue (Kirkegaard and Perry).
For each lesion, area measurements are made for all sections on which some of the lesion appeared and added together to give the integrated area measurement. Values are averaged to give one experimental value per mouse. A 2-sample t-test for unequal variances is performed to compare the log mean integrated area between treatment and control mice.

VEGF receptors = assay: Cellular autophosphorylation assay, transfected Chinese hamster ovary cells: VEGF receptors; format: cell-based
Procedure: (§1) In vivo activity requires drugs to enter cells and therefore agents are tested in cellular autophosphorylation assays, using Chinese hamster ovary cells transfected with one of several RTK genes.

PDGF receptors = assay: Cellular autophosphorylation assay, transfected Chinese hamster ovary cells: PDGF receptors; format: cell-based
Procedure: as §1

c-Kit = molecular target: T2, c-Kit (Homo sapiens, UniProt P10721); format: cell-based; conditions: transfected Chinese hamster ovary cells
T2 construct: expressed in transfected cells; host or cells: Chinese hamster ovary cells
Procedure: as §1

c-erbB2 = assay: Cellular autophosphorylation assay, transfected Chinese hamster ovary cells: c-erbB2; format: cell-based
Procedure: as §1

insulin receptor = assay: Cellular autophosphorylation assay, transfected Chinese hamster ovary cells: insulin receptor; format: cell-based
RTKs = conditions: in words; cited from earlier work
[4] = tested on: retinal neovascularization; conditions: pigs; cited from earlier work
retinal blood vessels = conditions: administration of exogenous VEGF; cited from earlier work
[5] = tested on: other RTKs including VEGF receptors; assay: Kinase assay, other RTKs including VEGF receptors; format: biochemical; conditions: in words

T2 sequence (P10721 26-976): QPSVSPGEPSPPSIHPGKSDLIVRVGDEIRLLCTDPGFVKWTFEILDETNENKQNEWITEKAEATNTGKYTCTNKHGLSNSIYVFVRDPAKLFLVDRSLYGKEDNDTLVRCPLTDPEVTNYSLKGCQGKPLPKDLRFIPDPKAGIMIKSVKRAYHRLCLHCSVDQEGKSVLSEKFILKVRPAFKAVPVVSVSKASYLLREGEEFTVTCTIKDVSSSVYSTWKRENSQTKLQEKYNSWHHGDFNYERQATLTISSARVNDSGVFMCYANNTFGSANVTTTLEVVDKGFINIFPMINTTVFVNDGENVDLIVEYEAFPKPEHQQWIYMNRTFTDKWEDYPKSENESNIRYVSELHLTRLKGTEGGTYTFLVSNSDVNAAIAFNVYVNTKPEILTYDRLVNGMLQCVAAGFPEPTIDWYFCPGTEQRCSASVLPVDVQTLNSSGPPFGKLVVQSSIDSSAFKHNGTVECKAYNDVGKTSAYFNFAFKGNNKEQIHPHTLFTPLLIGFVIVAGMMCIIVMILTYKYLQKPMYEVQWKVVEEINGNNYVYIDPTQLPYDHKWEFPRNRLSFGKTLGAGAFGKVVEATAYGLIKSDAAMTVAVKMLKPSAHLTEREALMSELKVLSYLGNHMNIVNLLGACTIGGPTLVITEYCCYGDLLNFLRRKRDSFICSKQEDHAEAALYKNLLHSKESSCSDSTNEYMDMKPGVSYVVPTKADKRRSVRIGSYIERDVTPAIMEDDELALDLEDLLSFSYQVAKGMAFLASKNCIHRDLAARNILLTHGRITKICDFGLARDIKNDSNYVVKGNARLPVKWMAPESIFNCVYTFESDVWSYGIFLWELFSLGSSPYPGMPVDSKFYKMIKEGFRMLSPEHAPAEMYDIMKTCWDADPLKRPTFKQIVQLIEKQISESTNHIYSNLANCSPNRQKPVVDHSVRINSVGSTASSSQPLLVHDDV

Clc1ccc(Nc2nnc(Cc3ccncc3)c3ccccc23)cc1 [CGP 79787D]
extent of retinal vessels at P7 ([1]; 10 mg/kg daily s.c. from P0, P7): only extended about half way to the periphery
extent of superficial capillary bed at P10 ([1]; 10 mg/kg daily s.c. from P0, P10): has not yet reached the edge of the retina
significance of differences in retinal vascular development versus vehicle ([1]; 10 mg/kg daily s.c., P7 and P10, FIG. 5): highly significant
inhibition of phosphorylation by the kinase domain of human VEGF receptor 1 (Flt-1): good inhibitor
inhibition of phosphorylation by all other kinases tested [2]: poor inhibitor
appearance of overlying retinal vessels ([3]; two weeks after laser): appeared normal
choroidal neovascularization at laser-induced rupture sites of Bruch's membrane ([3]; two weeks after laser): very little if any choroidal neovascularization
integrated area of lectin staining per lesion ([3]; n=5, vehicle 0.0713812±0.0066723 mm^2): 0.01124±0.001483 mm^2
inhibition of autophosphorylation of VEGF receptors (VEGF receptors): inhibits autophosphorylation
inhibition of autophosphorylation of PDGF receptors (PDGF receptors): inhibits autophosphorylation
inhibition of autophosphorylation of c-Kit (c-Kit): inhibits autophosphorylation
inhibition of autophosphorylation of c-erbB2 (c-erbB2): poor inhibitor
inhibition of autophosphorylation of insulin receptor (insulin receptor): poor inhibitor

O=c1c(-c2ccc(O)cc2)coc2cc(O)cc(O)c12 [Genistein, 4',5,7-trihydroxyisoflavone]
inhibition of RTKs (RTKs): relatively weak, nonspecific inhibitor

CN(C)C[C@@H]1CCn2cc(c3ccccc32)C2=C(C(=O)NC2=O)c2cn(c3ccccc23)CCO1 [LY 333531]
inhibition of retinal neovascularization after laser-induced branch vein occlusion [4]: partially inhibited retinal neovascularization

VEGF
hyperoxia-induced regression of retinal blood vessels (retinal blood vessels): prevented

Cc1ccc(NC(=O)c2ccccc2)cc1Nc1nccc(-c2cccnc2)n1 [CGP 53 716]
inhibition of autophosphorylation of VEGF receptors (VEGF receptors): poor inhibitors
inhibition of autophosphorylation of PDGF receptors (PDGF receptors): potent inhibitors
inhibition of other RTKs including VEGF receptors [5]: little or no inhibitory activity
